The term IC50 denotes the concentration needed to halve the response being measured.

SMILES strings stand for the structures. Where only a bound is given, the exact number is not on record here.

The assay has as its target T1, Human complement C1s enzyme (Homo sapiens, UniProt P09871).
T1 sequence (P09871 438-688 limits assumed): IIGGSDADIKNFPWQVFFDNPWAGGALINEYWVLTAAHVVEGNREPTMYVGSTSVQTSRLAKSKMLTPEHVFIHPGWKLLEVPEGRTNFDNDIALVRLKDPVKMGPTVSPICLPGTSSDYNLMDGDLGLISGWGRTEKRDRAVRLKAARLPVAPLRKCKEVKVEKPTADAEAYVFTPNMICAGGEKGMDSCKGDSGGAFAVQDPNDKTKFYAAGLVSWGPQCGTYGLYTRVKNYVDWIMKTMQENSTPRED
T1 sequence (P09871 16-437 partner limits assumed): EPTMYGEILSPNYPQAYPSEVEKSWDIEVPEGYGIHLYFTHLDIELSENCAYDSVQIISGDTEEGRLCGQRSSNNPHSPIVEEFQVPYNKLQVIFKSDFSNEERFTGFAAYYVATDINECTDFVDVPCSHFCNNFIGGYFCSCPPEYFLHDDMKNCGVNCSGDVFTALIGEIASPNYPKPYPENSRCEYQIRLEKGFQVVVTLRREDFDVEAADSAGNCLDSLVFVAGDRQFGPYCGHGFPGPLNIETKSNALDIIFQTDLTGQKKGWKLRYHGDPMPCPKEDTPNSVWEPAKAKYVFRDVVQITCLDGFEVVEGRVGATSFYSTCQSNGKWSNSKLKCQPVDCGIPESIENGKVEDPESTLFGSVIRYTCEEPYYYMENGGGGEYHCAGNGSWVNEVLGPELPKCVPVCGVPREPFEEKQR
Kind of assay: Human C1s enzyme assay. The settings on record: human complement C1s enzyme 1.16 nM, substrate Z-L-Lys-SBzl 100 μM, 5 min preincubation; read-out: IC50 (Stars), C1s Inhibiting Activity. The format is biochemical. The procedure:
Other standard complement assays are also available.
Human complement C1s enzyme (purified from human serum, Complement Technology, Inc.) at 1.16 nM final concentration was incubated with test compound at various concentrations for 5 min at room temperature in 50 mM Tris, 1 M NaCl, pH 7.5. A synthetic substrate Z-L-Lys-SBzl and DTNB (Ellman's reagent) were added to final concentrations of 100 μM each. Absorbance at 405 nm (A405) was recorded at 30 second intervals for 30 min using a microplate spectrophotometer. IC50 values were calculated by nonlinear regression of complement C1 s reaction rates as a function of test compound concentration.
ND indicates a compound for which the IC50 value is not determined.

For `COC[C@H]1C[C@@H](C(=O)NCc2cc3cnccc3[nH]2)N(C(=O)CNC(=O)c2cccc(Oc3ccc(C)cc3F)c2)C1` [Compound 367, (2S,4S)-N-((1H-pyrrolo[3,2-c]pyridin-2-yl)methyl)-1-((3-(2-fluoro-4-methylphenoxy)benzoyl)glycyl)-4-(methoxymethyl)pyrrolidine-2-carboxamide], the IC50 was less than 100 nM.

With `C[C@@H](NC(=O)[C@@H]1C[C@](F)(CF)CN1C(=O)CNC(=O)c1ccc(-c2ccc(F)cc2F)cc1)c1cc2cnccc2[nH]1` [Compound 162, (2S,4R)-N-((R)-1-(1H-pyrrolo[3,2-c]pyridin-2-yl)ethyl)-1-((2′,4′-difluoro-[1,1′-biphenyl]-4-carbonyl)glycyl)-4-fluoro-4-(fluoromethyl)pyrrolidine-2-carboxamide], the IC50 fell in the range of 100 to 1000 nM. Take `C[C@@H](NC(=O)[C@@H]1C[C@]2(C)C[C@@H]2N1C(=O)CNC(=O)c1ccc2c(c1)Oc1ccccc1S2)c1cc2cnccc2[nH]1` [Compound 130, (1S,3S,5S)-N-((R)-1-(1H-pyrrolo[3,2-c]pyridin-2-yl)ethyl)-5-methyl-2-((phenoxathiine-3-carbonyl)glycyl)-2-azabicyclo[3.1.0]hexane-3-carboxamide]: the IC50 was less than 100 nM. As to `C[C@@H](NC(=O)C1CSCN1C(=O)CNC(=O)c1ccc2c(c1)Oc1ccccc1S2)c1cc2cnccc2[nH]1` (stereo partly drawn) [Compound 289, N-((R)-1-(1H-pyrrolo[3,2-c]pyridin-2-yl)ethyl)-3-((phenoxathiine-3-carbonyl)glycyl)thiazolidine-4-carboxamide], the IC50 is less than 100 nM. For `C[C@@]12C[C@@H]1N(C(=O)CNC(=O)c1ccc3c(c1)Oc1ccccc1S3)[C@H](C(=O)NCc1ccc3c(c1)COB3O)C2` [Compound 279, (1S,3S,5S)-N-((1-hydroxy-1,3-dihydrobenzo[c][1,2]oxaborol-5-yl)methyl)-5-methyl-2-((phenoxathiine-3-carbonyl)glycyl)-2-azabicyclo[3.1.0]hexane-3-carboxamide], the IC50 is more than 1000 nM. The same measure for `O=C(NCC(=O)N1C[C@H](OC(F)F)C[C@H]1C(=O)NCc1ccc2cc[nH]c2c1)c1ccc2c(c1)Oc1ccccc1S2` [Compound 196, (2S,4R)-N-((1H-indol-6-yl)methyl)-4-(difluoromethoxy)-1-((phenoxathiine-3-carbonyl)glycyl)pyrrolidine-2-carboxamide]: more than 1000 nM; for `Cc1ccc(Nc2cccc(C(=O)NCC(=O)N3C[C@H](OC(F)F)C[C@H]3C(=O)NCc3cc4cnccc4[nH]3)c2)c(F)c1` [Compound 324, (2S,4R)-N-((1H-pyrrolo[3,2-c]pyridin-2-yl)methyl)-4-(difluoromethoxy)-1-((3-((2-fluoro-4-methylphenyl)amino)benzoyl)glycyl) pyrrolidine-2-carboxamide]: less than 100 nM; for `O=C(NCC(=O)N1CC2(C[C@H]1C(=O)NCc1cc3cnccc3[nH]1)OCCO2)c1ccc2c(c1)-c1ccccc1C2(F)F` [Compound 2, (S)-N-((1H-pyrrolo[3,2-c]pyridin-2-yl)methyl)-7-((9,9-difluoro-9H-fluorene-3-carbonyl)glycyl)-1,4-dioxa-7-azaspiro[4.4]nonane-8-carboxamide]: less than 100 nM. For the molecule `CS(=O)(=O)[C@@H]1C[C@@H](C(=O)NCc2cc3cnccc3[nH]2)N(C(=O)CNC(=O)c2ccc3oc4ccccc4c3c2)C1` [Compound 202, (2S,4R)-N-((1H-pyrrolo[3,2-c]pyridin-2-yl)methyl)-1-((dibenzo[b,d]furan-2-carbonyl)glycyl)-4-(methylsulfonyl)pyrrolidine-2-carboxamide], the IC50 was less than 100 nM. Consider `COC[C@@]1(F)C[C@@H](C(=O)N[C@H](C)c2cc3cnccc3[nH]2)N(C(=O)CNC(=O)c2ccc3c(c2)-c2ccccc2C3(F)F)C1` [Compound 73, (2S,4R)-N-((R)-1-(1H-pyrrolo[3,2-c]pyridin-2-yl)ethyl)-1-((9,9-difluoro-9H-fluorene-3-carbonyl)glycyl)-4-fluoro-4-(methoxymethyl)pyrrolidine-2-carboxamide], for which the IC50 was less than 100 nM. `O=C(NCC(=O)N1C[C@H](OC(F)F)C[C@H]1C(=O)NCc1cc2cnccc2[nH]1)c1cncc(N2CCOCC2)n1` [Compound 380, N-(2-((2S,4R)-2-(((1H-pyrrolo[3,2-c]pyridin-2-yl)methyl)carbamoyl)-4-(difluoromethoxy)pyrrolidin-1-yl)-2-oxoethyl)-6-morpholinopyrazine-2-carboxamide]: the IC50 was more than 1000 nM. `C[C@@H](NC(=O)[C@@H]1CC2(CN1C(=O)CN1Cc3cc(-c4ccc(F)cc4F)ccc3C1=O)OCCO2)c1cc2cnccc2[nH]1` [Compound 122, (S)-N-((R)-1-(1H-pyrrolo[3,2-c]pyridin-2-yl)ethyl)-7-(2-(5-(2,4-difluorophenyl)-1-oxoisoindolin-2-yl)acetyl)-1,4-dioxa-7-azaspiro[4.4]nonane-8-carboxamide]: the IC50 fell in the range of 100 to 1000 nM.

Regarding `C[C@@H](NC(=O)[C@@H]1C[C@@H](OC(F)F)CN1C(=O)CNC(=O)c1ccc(-c2ccc(F)cc2F)cc1)c1cc2cnccc2[nH]1` [Compound 90, (2S,4R)-N-((R)-1-(1H-pyrrolo[3,2-c]pyridin-2-yl)ethyl)-1-((2′,4′′-difluoro-[1,1′-biphenyl]-4-carbonyl)glycyl)-4-(difluoromethoxy)pyrrolidine-2-carboxamide], the IC50 was less than 100 nM. With `O=C(NCC(=O)N1CC2(C[C@H]1C(=O)NCc1cc3cncnc3[nH]1)OCCO2)c1ccc2c(c1)-c1ccccc1C2(F)F` [Compound 16, (S)-N-((7H-pyrrolo[2,3-d]pyrimidin-6-yl)methyl)-7-((9,9-difluoro-9H-fluorene-3-carbonyl)glycyl)-1,4-dioxa-7-azaspiro[4.4]nonane-8-carboxamide], the half-maximal inhibitory concentration (IC50) was more than 1000 nM. Take `Cc1cc(C(=O)NCC(=O)N2C[C@H](OC(F)F)C[C@H]2C(=O)N[C@H](C)c2cc3cnccc3[nH]2)ccc1Oc1ccccc1` [Compound 81]: the IC50 is less than 100 nM. Regarding `C[C@@H](NC(=O)[C@@H]1C[C@@H](S(C)(=O)=O)CN1C(=O)CNC(=O)c1ccc(Oc2ccc(F)cc2)cc1)c1cc2cnccc2[nH]1` [Compound 87, (2S,4R)-N-((R)-1-(1H-pyrrolo[3,2-c]pyridin-2-yl)ethyl)-1-((4-(4-fluorophenoxy)benzoyl)glycyl)-4-(methylsulfonyl)pyrrolidine-2-carboxamide], the IC50 lay within 100 to 1000 nM. For the molecule `C[C@@H](NC(=O)[C@@H]1C[C@]2(C)C[C@@H]2N1C(=O)CNC(=O)c1cccc(Oc2ccccc2)c1)c1cc2cnccc2[nH]1` [Compound 171, (1S,3S,5S)-N-((R)-1-(1H-pyrrolo[3,2-c]pyridin-2-yl)ethyl)-5-methyl-2-((3-phenoxybenzoyl)glycyl)-2-azabicyclo[3.1.0]hexane-3-carboxamide], the 50% inhibitory concentration (IC50) is less than 100 nM. The same measure for `O=C(NCC(=O)N1C[C@H](OC(F)F)C[C@H]1C(=O)NCc1cc2cnccn2c1)c1cccc(Oc2ccc(F)cc2)c1` [Compound 278, (2S,4R)-4-(difluoromethoxy)-1-((3-(4-fluorophenoxy)benzoyl)glycyl)-N-(pyrrolo[1,2-a]pyrazin-7-ylmethyl)pyrrolidine-2-carboxamide]: less than 100 nM; for `Cc1cc(Oc2ccc(C)cc2F)cc(C(=O)NCC(=O)N2C[C@H](OC(F)F)C[C@H]2C(=O)NCc2cc3cnccc3[nH]2)c1` [Compound 328, (2S,4R)-N-((1H-pyrrolo[3,2-c]pyridin-2-yl)methyl)-4-(difluoromethoxy)-1-((3-(2-fluoro-4-methylphenoxy)-5-methylbenzoyl)glycyl)pyrrolidine-2-carboxamide]: less than 100 nM.

Take `CC(c1cccc(F)c1)c1ccc(C(=O)NCC(=O)N2CC3(C[C@H]2C(=O)NCc2cc4cnccc4[nH]2)OCCO3)s1` (stereo partly drawn) [Compound 357, (8S)-N-((1H-pyrrolo[3,2-c]pyridin-2-yl)methyl)-7-((5-(1-(3-fluorophenyl)ethyl)thiophene-2-carbonyl)glycyl)-1,4-dioxa-7-azaspiro[4.4]nonane-8-carboxamide]: the IC50 was in the range of 100 to 1000 nM. Regarding `CN1CCc2cc(CNC(=O)[C@@H]3C[C@@H](OC(F)F)CN3C(=O)CNC(=O)c3ccc4c(c3)Oc3ccccc3S4)sc2C1` [Compound 346, (2S,4R)-4-(difluoromethoxy)-N-((6-methyl-4,5,6,7-tetrahydrothieno[2,3-c]pyridin-2-yl)methyl)-1-((phenoxathiine-3-carbonyl)glycyl) pyrrolidine-2-carboxamide], the IC50 is more than 1000 nM.

For the molecule `C[C@@H](NC(=O)[C@@H]1C[C@](F)(CF)CN1C(=O)CNC(=O)c1ccc2c(c1)-c1ccccc1C2(F)F)c1cc2cnccc2[nH]1` [Compound 86, (2S,4R)-N-((R)-1-(1H-pyrrolo[3,2-c]pyridin-2-yl)ethyl)-1-((9,9-difluoro-9H-fluorene-3-carbonyl)glycyl)-4-fluoro-4-(fluoromethyl)pyrrolidine-2-carboxamide], the IC50 was 100 to 1000 nM.

For the origin of these results see patent US20260062443A1 (ALEXION PHARMACEUTICALS, INC., priority 2022, published 2026).
